# Source: patent US8513295B2, “Viral and fungal inhibitors” (Georgetown University, priority 2008, dated 2013)
# Molecular target: DENV protease (Dengue virus type 2, UniProt P14340)
# Assay: DENV protease inhibition activity
# Assay type: biochemical
# Details: not given
# Experimental: (§1) Compounds I-1 to I-14 and II-1 to II-4 (which were synthesized using methods of organic synthesis as discussed above) were analyzed by in vitro protease assays performed in opaque 96-well plates. The enzyme kinetics was done under steady-state conditions. The standard reaction mixtures (50 μL) containing 200 mM Tris-HCl, pH 9.5, 6 mM NaCl, 30% glycerol, 67 nM of WNV protease and 50 μM inhibitor in each assay were incubated for 15 min at room temperature. Reactions were started by the addition of the substrate Boc-Gly-Lys-Arg-AMC at 100 μM final concentration and incubated at room temperature for 15 min. The absorbance of each well containing para-nitroaniline was measured at 405 nm using a spectrophotometer (Molecular Devices, Sunnyvale, Calif.); the fluorescence of AMC released from the WNV substrate was measured using a Tecan Geneios (Durham, N.C.) spectrofluorometer at excitation and emission wavelengths of 390 nm and 420 nm, respectively. Similarly, the WNV protease activity was also determined using the fluorogenic tetrapeptide substrate containing the P4-P1 residues and the fluorogenic group, 4-methoxy-β-naphthylamide (MNA), at P1′ position (Z-Val-Lys-Lys-Arg-MNA) (SEQ ID NO:1). Fluorescence was measured using a spectrofluorometer (Molecular Devices) at excitation and emission wavelengths of 290 and 420 nm, respectively. Fluorescence values obtained with no inhibitor control were taken as 100% and those in the presence of inhibitors were plotted as the percent inhibition of the control.
# (§2) Compounds I-2, I-4, I-6, I-7, I-8, I-9, I-23, I-26, I-27, I-28, I-29, I-30, I-31, I-32, III-1, III-2, VI-1, VI-2, VI-3, and VI-4 were also tested for WNV protease inhibition activity according to the procedure detailed above. Further, Compounds I-28, V-1, VI-2, VI-3, VI-4, and IX-1 were tested for DENV protease inhibition activity. The structures of Compounds I-2, I-4, I-6, I-7, I-8, I-9, I-23, I-26, I-27, I-28, I-29, I-30, I-31, I-32, III-1, III-2, VI-1, VI-2, VI-3, VI-4, and IX-1 are provided above.
# Chain of DENV protease (P14340 1394-1440): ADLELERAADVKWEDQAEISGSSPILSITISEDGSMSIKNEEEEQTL
# Chain of DENV protease (P14340 1476-1653): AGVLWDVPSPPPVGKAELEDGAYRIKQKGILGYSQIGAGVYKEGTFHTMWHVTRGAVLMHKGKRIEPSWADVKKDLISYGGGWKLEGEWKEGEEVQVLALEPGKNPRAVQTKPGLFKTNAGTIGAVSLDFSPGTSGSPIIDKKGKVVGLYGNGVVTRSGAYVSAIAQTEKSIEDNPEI
row,SMILES,IC50 [µM]
1,O=C(CCC(C(=O)Nc1ccc(Oc2ccccc2)cc1)N1Cc2ccccc2C1=O)OCc1ccccc1 (centres unmarked) [Compound I-28],45
2,O=C1c2ccccc2CN1C(Cc1ccccc1)c1nnc(-c2cccc(Cl)c2)o1 (centres unmarked) [Compound V-1],12.2
3,O=C(CSc1nc2ccccc2c(=O)[nH]1)Nc1cccc(Oc2ccccc2)c1 [IX-1],89
4,O=c1c2ccccc2sn1C(Cc1ccccc1)c1nnc(Cc2ccccc2)o1 (centres unmarked) [VI-2],9.6
5,O=c1c2ccccc2sn1C(Cc1ccccc1)c1nnc(-c2cccc(Cl)c2)o1 (centres unmarked) [VI-3],10.6
6,O=c1c2ccccc2sn1C(Cc1ccccc1)c1nnc(-c2cccc(F)c2)o1 (centres unmarked) [VI-4],11.4

# Molecular target: T1, WNV protease (UniProt Q9Q6P4)
# T1 construct: "expression and purification of WNV (EG101 strain) were similar to those described elsewhere by Mueller et al."
# T1 sequence (Q9Q6P4 1506-2124): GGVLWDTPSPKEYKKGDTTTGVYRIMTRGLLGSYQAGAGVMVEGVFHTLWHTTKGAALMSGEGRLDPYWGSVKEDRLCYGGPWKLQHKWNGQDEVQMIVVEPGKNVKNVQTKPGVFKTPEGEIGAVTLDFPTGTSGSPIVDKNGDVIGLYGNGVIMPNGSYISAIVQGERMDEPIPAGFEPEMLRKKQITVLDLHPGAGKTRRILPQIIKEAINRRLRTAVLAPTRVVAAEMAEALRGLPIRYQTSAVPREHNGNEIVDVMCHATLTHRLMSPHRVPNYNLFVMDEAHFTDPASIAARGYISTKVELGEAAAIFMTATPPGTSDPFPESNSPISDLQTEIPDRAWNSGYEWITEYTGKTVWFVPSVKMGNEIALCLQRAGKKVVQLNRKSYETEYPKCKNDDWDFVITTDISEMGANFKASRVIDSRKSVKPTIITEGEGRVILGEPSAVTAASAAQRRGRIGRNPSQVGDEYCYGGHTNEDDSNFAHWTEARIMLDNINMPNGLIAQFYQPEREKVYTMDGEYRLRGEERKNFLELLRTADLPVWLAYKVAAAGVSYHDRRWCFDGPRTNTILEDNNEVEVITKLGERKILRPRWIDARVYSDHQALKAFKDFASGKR
# Assay: in vitro WNV protease assay (Example 2)
# Assay type: biochemical, West Nile Virus (EG101 strain)
# Details: Protease Inhibition Activity, Table 1; read-out: IC50 (μM) WNVpro
# Experimental: Procedures for expression and purification of WNV (EG101 strain) were similar to those described elsewhere by Mueller et al., Int. J. Biochem. Cell. Biol., 39: 606-14 (2007). Briefly, E. coli Top10 F′ cells (Invitrogen, Carlsbad, Calif.) were transformed with the protease expression plasmid. Cells were grown at 37° C. until the OD600 was ˜0.5. Cells were then induced with isopropyl-1-thio-β-D-galactopyranoside (American Bioanalytical, Natick, Mass.) (0.5 mM), and incubated for 4 h at 37° C. Cells were harvested by centrifugation (5000×g) for 15 min at 4° C., washed once with a buffer containing 50 mM Tris-HCl, pH 7.5, and 200 mM NaCl, centrifuged at 5000×g for 15 min at 4° C., and stored at −80° C. until used.
# Proteases were purified by suspending bacterial pellets in 50 mM Hepes, pH 7.0, 500 mM NaCl, (buffer A) with 0.05 mg/ml lysozyme. Cells were incubated for 30 min on ice after addition of 10% stock solution of Triton X-100 (final concentration of 0.5%). Cells were disrupted by sonication for 2 min and the soluble fraction was collected after centrifugation (15,000×g) for 30 min at 4° C. The soluble fraction was incubated for 1 h at 4° C. with Talon resin (BD Bioscience, San Jose, Calif.) which was pre-equilibrated in buffer A. The affinity resin was centrifuged at (400×g) for 10 min at 4° C., washed three times with buffer A, and packed into a column. Washing of the column was continued with the buffer A containing 10 mM imidazole, followed by elution of the protease with buffer A containing 150 mM imidazole. The protease was concentrated and further purified by Sephadex G-75 gel filtration chromatography. The purified protease fractions were pooled and dialyzed against a buffer containing 50 mM Tris-HCl pH 7.5 and 300 mM NaCl (4×1L). Aliquots (100 μl) were frozen at −80° C.
# as §1, §2
row,SMILES,IC50 [µM]
1,O=C(Nc1cccc(Oc2ccccc2)c1)C(Cc1ccccc1)N1Cc2ccccc2C1=O (centres unmarked) [Compound I-2],11.1
2,O=C(Nc1ccc(Oc2ccccc2)cc1)C(Cc1ccccc1)N1Cc2ccccc2C1=O (centres unmarked) [Compound I-4],19.7
3,O=C(CNC(=O)Nc1cccc(Oc2ccccc2)c1)NCc1ccccc1 [Compound I-6],22.1
4,O=C(CNC(=O)Nc1ccc(Oc2ccccc2)cc1)NCc1ccccc1 [Compound I-7],26.1
5,O=C(CNC(=O)Nc1cccc(Oc2ccccc2)c1)Nc1ccccc1 [Compound I-8],22.9
6,O=C(CNC(=O)Nc1ccc(Oc2ccccc2)cc1)Nc1ccccc1 [Compound I-9],31.2
7,O=C(CCCCc1ccccc1)Nc1cccc(Oc2ccccc2)c1 [Compound I-23],38.6
8,O=C(CC(C(=O)Nc1cccc(Oc2ccccc2)c1)N1Cc2ccccc2C1=O)OCc1ccccc1 (centres unmarked) [Compound I-26],13
9,O=C(CCC(C(=O)Nc1cccc(Oc2ccccc2)c1)N1Cc2ccccc2C1=O)OCc1ccccc1 (centres unmarked) [Compound I-27],22.7
10,O=C(CCC(C(=O)Nc1ccc(Oc2ccccc2)cc1)N1Cc2ccccc2C1=O)OCc1ccccc1 (centres unmarked) [Compound I-28],15.5
11,O=C(Nc1ccc(Oc2ccccc2)cc1)C(C(=O)OCc1ccccc1)n1sc2ccccc2c1=O (centres unmarked) [Compound I-29],9
12,O=C(Nc1ccccc1Oc1ccccc1)C(Cc1ccccc1)n1sc2ccccc2c1=O (centres unmarked) [Compound I-30],6
13,O=C(Nc1cccc(Oc2ccccc2)c1)C(Cc1ccccc1)n1sc2ccccc2c1=O (centres unmarked) [Compound I-31],2.6
14,O=C(Nc1ccc(Oc2ccccc2)cc1)C(Cc1ccccc1)n1sc2ccccc2c1=O (centres unmarked) [Compound I-32],6.6
15,O=C(CSc1nc(-c2ccccc2)no1)Nc1nc2ccccc2[nH]1 [III-1],14.7
16,O=C(CSc1nc2ccccc2s1)Nc1nc2ccccc2s1 [III-2],34.1
17,COc1ccc(Cc2nnc(C(Cc3ccccc3)n3sc4ccccc4c3=O)o2)cc1 (centres unmarked) [VI-1],26
18,O=c1c2ccccc2sn1C(Cc1ccccc1)c1nnc(Cc2ccccc2)o1 (centres unmarked) [VI-2],2.1
19,O=c1c2ccccc2sn1C(Cc1ccccc1)c1nnc(-c2cccc(Cl)c2)o1 (centres unmarked) [VI-3],7.6
20,O=c1c2ccccc2sn1C(Cc1ccccc1)c1nnc(-c2cccc(F)c2)o1 (centres unmarked) [VI-4],9.8
